Laboratory results as given in patent US12583820B2, “Broad spectrum antivirals against coronavirus” (priority 2020, dated 2026).
Where two headings read alike, the source gives them in different places.

What was measured:
[1] = test system: feline infectious peritonitis (FIP), a coronavirus-induced systemic disease; conditions: cited from earlier work
[2] = test system: Huh-7, CRFK or CCL1 cells; assay: Nonspecific cytotoxic effects (CC50), CytoTox 96 kit; conditions: 72 h, 1 to 100 μM, Table 1
MERS-CoV = assay: microbe, parasite or virus in culture; format: cell-based
FIPV = assay: microbe, parasite or virus in culture; format: cell-based; conditions: Alphacoronavirus 1, CRFK, read-out: EC50 in cell culture (μM) FIPV
[3] = Nonspecific cytotoxic effects (CC50), CytoTox 96 kit; conditions: Huh-7, CRFK or CCL1 cells (confluent, 96-well plates)
3CLpro of MERS-CoV = 3CLpro of MERS-CoV (Middle East respiratory syndrome-related coronavirus, UniProt K9N7C7); assay: biochemical; format: biochemical
3CLpro of SARS-CoV = 3CLpro of SARS-CoV (Severe acute respiratory syndrome coronavirus, UniProt P0C6X7); format: biochemical; conditions: read-out: IC50 in enzyme assay (μM) SARS-CoV
3CLpro of SARS-CoV-2 = molecular target: T1, 3CLpro of SARS-CoV-2 (Severe acute respiratory syndrome coronavirus 2, UniProt P0DTD1); assay: biochemical; format: biochemical
T1 construct: The codon-optimized cDNA of full length of 3CLpro of SARS-CoV-2; 6xHis (N); made in house; pET-28a(+) vector (points to E. coli, my inference)

MHV-1 = assay: microbe, parasite or virus in culture; format: cell-based, mouse hepatitis virus (MHV); conditions: Murine coronavirus, read-out: EC50 in cell culture (μM) MHV
[4] = test system: NV in the replicon harboring cells (HG23 cells); assay: microbe, parasite or virus in culture; format: cell-based, norovirus (NV)
in vitro = conditions: human
NV 3CLpro = NV 3CLpro (Norovirus, UniProt Q83883); assay: biochemical; format: biochemical
SARS-CoV-2 = assay: microbe, parasite or virus in culture; format: cell-based
[5] = read-out: IC50 in enzyme assay (μM) MERS-CoV
[6] = Middle East respiratory syndrome-related coronavirus, Huh-7, read-out: EC50 in cell culture (μM) MERS-CoV
[7] = Norovirus, HG23, read-out: EC50 (μM) ± SD

3CLpro of MERS-CoV, sequence (K9N7C7 3248-3553 limits assumed): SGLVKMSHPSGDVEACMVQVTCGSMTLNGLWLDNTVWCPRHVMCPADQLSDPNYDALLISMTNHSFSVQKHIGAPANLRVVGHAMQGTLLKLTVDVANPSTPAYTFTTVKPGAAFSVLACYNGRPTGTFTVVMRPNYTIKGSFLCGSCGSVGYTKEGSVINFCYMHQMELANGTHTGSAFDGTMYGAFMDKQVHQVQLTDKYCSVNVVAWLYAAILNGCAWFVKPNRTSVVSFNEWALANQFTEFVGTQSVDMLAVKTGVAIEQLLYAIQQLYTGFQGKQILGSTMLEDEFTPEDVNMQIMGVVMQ
NV 3CLpro, sequence (Q83883 1101-1281): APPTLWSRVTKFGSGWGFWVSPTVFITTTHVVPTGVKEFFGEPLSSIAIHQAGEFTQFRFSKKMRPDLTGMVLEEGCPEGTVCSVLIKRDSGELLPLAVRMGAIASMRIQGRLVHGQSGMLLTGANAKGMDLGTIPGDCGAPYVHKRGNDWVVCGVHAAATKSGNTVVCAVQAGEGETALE

SMILES | EC50 (FIPV) [µM] | CC50 at 72 h [3] [nM] | IC50 (3CLpro of MERS-CoV; [5]) [µM] | IC50 (3CLpro of SARS-CoV) [µM] | EC50 (MHV-1) [µM] | EC50 [4, 7] [µM] | CC50 (in vitro) [nM] | IC50 (NV 3CLpro) [µM] | other results
CC(C)C[C@H](NC(=O)OCc1ccccc1)C(=O)N[C@@H](C[C@@H]1CCNC1=O)C(O)S(=O)(=O)[O-].[Na+] (some centres unmarked) [GC376, reference compound] |  |  |  |  |  |  |  |  | clinical efficacy in cats with feline infectious peritonitis (FIP) [1]: reversed the progression of FIP and resulted in clinical remission; CC50 [2]: > 100000 nM; EC50 (MERS-CoV; read-out: EC50 in cell culture (μM) MERS-CoV): […]
CC(C)C[C@H](NC(=O)OC1CCCCC1)C(=O)N[C@@H](C[C@@H]1CCNC1=O)C(O)S(=O)(=O)[O-].[Na+] (stereo partly drawn) [Compound 7a (Scheme 1), sodium (2S)-2-((S)-2-(((cyclohexyloxy)carbonyl)amino)-4-methylpentanamido)-1-hydroxy-3-((S)-2-oxopyrrolidin-3-yl)propane-1-sulfonate] | 0.07 | > 100000 | 0.15 | 3.8 | 0.08 |  |  |  | EC50 values against MERS-CoV in cell culture (in words) (MERS-CoV): submicromolar; EC50 (MERS-CoV; [6]): 0.08 µM; IC50 (3CLpro of SARS-CoV-2): 3.5 µM
O=C[C@H](C[C@@H]1CCNC1=O)NC(=O)[C@H](CC1CCCCC1)NC(=O)OC/C=C/c1cccc(Cl)c1 [Compound 5s] |  |  |  |  |  | 0.06 ± 0.01 | 24100 ± 600 | 0.14 ± 0.01 | 
CCCCC1CCC(OC(=O)N[C@@H](CC(C)C)C(=O)N[C@H](C=O)C[C@@H]2CCNC2=O)CC1 (stereo partly drawn) [Compound 6e (Scheme 1), 4-butylcyclohexyl ((S)-4-methyl-1-oxo-1-(((S)-1-oxo-3-((S)-2-oxopyrrolidin-3-yl)propan-2-yl)amino)pentan-2-yl)carbamate] | 0.22 | > 100000 | 0.15 | 0.9 | 0.12 |  |  |  | IC50 (3CLpro of SARS-CoV-2): 0.8 µM; EC50 (SARS-CoV-2; Severe acute respiratory syndrome coronavirus 2, Vero C1008, read-out: EC50 in cell culture (μM) SARS-CoV-2): 0.1 µM
CC(C)C[C@H](NC(=O)OCC(C)(C)c1cccc(Cl)c1)C(=O)N[C@H](C=O)C[C@@H]1CCNC1=O [Compound 5g (Scheme 2)] |  |  |  |  |  |  |  |  | IC50 (3CLpro of MERS-CoV; read-out: MERS-CoV IC50(μM) Enzyme): 0.08 µM; CC50 (HG23 cells): > 100000 nM; EC50 (MERS-CoV; read-out: MERS-CoV EC50 (μM) Cell culture): 0.05 µM; EC50 ([4]; read-out: EC50 (μM) ± SD): 0.17 ± 0.05 µM; IC50 (3CLpro of SARS-CoV-2; read-out: SARS-CoV-2 IC50 (μM) enzyme): 0.3 µM; IC50 (NV 3CLpro; read-out: IC50 (μM) ± SD): 0.27 ± 0.04 µM; EC50 (SARS-CoV-2; read-out: SARS-CoV-2 EC50 (μM) Cell culture): 0.18 µM
CC(C)C[C@H](NC(=O)OC/C=C/c1cccc(Cl)c1)C(=O)N[C@H](C=O)C[C@@H]1CCNC1=O [Compound 5t] |  |  |  |  |  | 0.08 ± 0.01 | > 100000 | 0.15 ± 0.05 | 
O=C[C@H](C[C@@H]1CCNC1=O)NC(=O)[C@H](CC1CCCCC1)NC(=O)OC1(c2cccc(Cl)c2)CC1 [Compound 5q] |  |  |  |  |  | 0.25 ± 0.07 | 36500 ± 7100 | 0.28 ± 0.06 | 
CC(C)C[C@H](NC(=O)OC1CCC(F)(F)CC1)C(=O)N[C@@H](C[C@@H]1CCNC1=O)C(O)S(=O)(=O)[O-].[Na+] (stereo partly drawn) [Compound 7h (Scheme 1), sodium (2S)-2-((S)-2-((((4,4-difluorocyclohexyl)oxy)carbonyl)amino)-4-methylpentan-amido)-1-hydroxy-3-((S)-2-oxopyrrolidin-3-yl)propane-1-sulfonate] | 0.12 | > 100000 | 0.08 | 2.2 | 0.11 |  |  |  | EC50 values against MERS-CoV in cell culture (in words) (MERS-CoV): submicromolar; EC50 (MERS-CoV; [6]): 0.21 µM
CC(C)C[C@H](NC(=O)OC1(c2cccc(Cl)c2)CC1)C(=O)N[C@H](C=O)C[C@@H]1CCNC1=O [Compound 5r] |  |  |  |  |  | 0.65 ± 0.2 | > 100000 | 0.28 ± 0.03 | 
